Molecular target: T1, Dimer of Gag-Pol polyprotein [501-599,Q508K,L534I,L564I,C568A,C596A] (Human immunodeficiency virus 1, UniProt P03367, C568A/C596A/L534I/L564I/Q508K)
T1 construct: 501-599
Test: Protease Inhibition Assay
Conditions: pH 6.4; 25 °C
Experimental: The Ki values were determined using fluorogenic substrate, 2-(aminobenzoyl)-Thr-Ile-Nle-Phe(p-NO2)-Gln-ArgNH2. A standard curve relating changes in fluorescent intensity to changes in concentration of product was used to convert fluorescent changes into molar velocities. The amount of cleavage was determined by HPLC.

First: O=C(N[C@H]1c2ccccc2C[C@H]1O)[C@H](Cc1ccccc1)C[C@H](O)CN1C(=O)N(Cc2ccccn2)C[C@@H]1Cc1ccccc1 [(2R,4S)-2-benzyl-5-[(5S)-5-benzyl-2-oxo-3-(pyridin-2-ylmethyl)imidazolidin-1-yl]-4-hydroxy-N-[(1S,2R)-2-hydroxy-2,3-dihydro-1H-inden-1-yl]pentanamide]
Second: O=C(N[C@H]1c2ccccc2C[C@H]1O)[C@H](Cc1ccccc1)C[C@H](O)CN1C(=O)N(Cc2cccnc2)C[C@@H]1Cc1ccccc1 [(2R,4S)-2-benzyl-5-[(5S)-5-benzyl-2-oxo-3-(pyridin-3-ylmethyl)imidazolidin-1-yl]-4-hydroxy-N-[(1S,2R)-2-hydroxy-2,3-dihydro-1H-inden-1-yl]pentanamide]
The Ki of the first is 2.3-fold higher: 41 nM for the first, 18 nM for the second. The second binds more tightly here.

Compared with `COc1ccc(CN2C[C@H](Cc3ccccc3)N(C[C@@H](O)C[C@@H](Cc3ccccc3)C(=O)N[C@H]3c4ccccc4C[C@H]3O)C2=O)cc1` [(2R,4S)-2-benzyl-5-[(5S)-5-benzyl-3-[(4-methoxyphenyl)methyl]-2-oxoimidazolidin-1-yl]-4-hydroxy-N-[(1S,2R)-2-hydroxy-2,3-dihydro-1H-inden-1-yl]pentanamide], `CS(=O)(=O)c1ccc(CN2C[C@H](Cc3ccccc3)N(C[C@@H](O)C[C@@H](Cc3ccccc3)C(=O)N[C@H]3c4ccccc4C[C@H]3O)C2=O)cc1` [(2R,4S)-2-benzyl-5-[(5S)-5-benzyl-3-[(4-methanesulfonylphenyl)methyl]-2-oxoimidazolidin-1-yl]-4-hydroxy-N-[(1S,2R)-2-hydroxy-2,3-dihydro-1H-inden-1-yl]pentanamide] is 54-fold higher in Ki: 5.6 nM for the first, 300 nM for the second.

First: O=C(N[C@H]1c2ccccc2C[C@H]1O)[C@H](Cc1ccccc1)C[C@H](O)CN1C(=O)N(Cc2ccncc2)C[C@@H]1Cc1ccccc1 [(2R,4S)-2-benzyl-5-[(5S)-5-benzyl-2-oxo-3-(pyridin-4-ylmethyl)imidazolidin-1-yl]-4-hydroxy-N-[(1S,2R)-2-hydroxy-2,3-dihydro-1H-inden-1-yl]pentanamide]
Second: O=C(N[C@H]1c2ccccc2C[C@H]1O)[C@H](Cc1ccccc1)C[C@H](O)CN1C(=O)N(Cc2cccc(F)c2)C[C@@H]1Cc1ccccc1 [(2R,4S)-2-benzyl-5-[(5S)-5-benzyl-3-[(3-fluorophenyl)methyl]-2-oxoimidazolidin-1-yl]-4-hydroxy-N-[(1S,2R)-2-hydroxy-2,3-dihydro-1H-inden-1-yl]pentanamide]
The Ki of the first is 59-fold higher: 190 nM for the first, 3.2 nM for the second.

`COc1cc(CN2C[C@H](Cc3ccccc3)N(C[C@@H](O)C[C@@H](Cc3ccccc3)C(=O)N[C@H]3c4ccccc4C[C@H]3O)C2=O)cc(OC)c1OC` [(2R,4S)-2-benzyl-5-[(5S)-5-benzyl-2-oxo-3-[(3,4,5-trimethoxyphenyl)methyl]imidazolidin-1-yl]-4-hydroxy-N-[(1S,2R)-2-hydroxy-2,3-dihydro-1H-inden-1-yl]pentanamide] gave a Ki of 100 nM.
